In patent US20250195536A1, “BICYCLOOCTANE KRAS INHIBITORS” (Incyte Corporation, priority 2023, published 2025):

What was measured:
KRAS G12D = KRAS G12D (Homo sapiens, UniProt P01116, G12D); experiment: GDP-GTP exchange assay (KRAS G12D); format: biochemical; conditions: bodipy-GDP/GppNHp exchange with SOS1; 4 h pre-incubation, 2 h reaction;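 also: one dagger IC50 up to 100 nM and two daggers above 100 nM up to 1 μM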
Summary of the method: (§1)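 IC50 came from a four-parameter fit of fluorescence loss (485/520 nm) as SOS1 (150 nM) swapped bodipy-GDP for GppNHp (500 μM) on 2.5 nM KRAS, final concentrations. Compounds were pre-incubated 4 h at r.t. (pH 7.5 Hepes, 10 mM MgCl2); exchange ran 2 h (G12D) or 3 h (G12V).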

KRAS G12V = KRAS G12V (Homo sapiens, UniProt P01116, G12V); experiment: GDP-GTP exchange assay (KRAS G12V); format: biochemical; conditions: bodipy-GDP/GppNHp exchange with SOS1; 3 h incubation after GppNHp-SOS1;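 also: one dagger IC50 up to 100 nM and two daggers above 100 nM up to 1 μM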
Sequence of KRAS G12V (P01116 1-188 isoform P01116-2 G12V): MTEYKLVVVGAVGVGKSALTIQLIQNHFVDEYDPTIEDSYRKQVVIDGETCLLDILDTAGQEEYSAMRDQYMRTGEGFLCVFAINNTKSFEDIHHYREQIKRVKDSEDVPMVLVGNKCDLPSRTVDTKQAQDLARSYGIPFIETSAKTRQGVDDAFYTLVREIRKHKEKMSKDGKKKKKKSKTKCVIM
Summary of the method: as §1

[1] = Caco2 assay (permeability, Papp A-B); format: in vitro ADME; conditions: human, Caco-2, absorptive direction (A-B), 50 μM test compound, 4% BSA in receiver
Summary of the method: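 Absorptive (A-B) Papp: 50 μM test compound in HBSS added to apical side of 22-25-day Caco-2 monolayers (TEER 300 Ω·cm^2), receiver buffer containing 4% BSA. After 120 min at 37 °C, 5% CO2, both sides analysed by LCMS; Papp calculated from flux rate normalized to area and donor amount.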

Sequence of KRAS G12D (P01116 1-188 isoform P01116-2 G12D): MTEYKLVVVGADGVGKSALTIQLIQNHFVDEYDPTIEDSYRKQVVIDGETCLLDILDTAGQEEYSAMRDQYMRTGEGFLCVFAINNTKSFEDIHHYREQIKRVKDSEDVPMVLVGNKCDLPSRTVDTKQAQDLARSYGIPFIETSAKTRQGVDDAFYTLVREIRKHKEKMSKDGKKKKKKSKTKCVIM

Row | SMILES | G12D_exchange (KRAS_G12D exchange assay IC50) (KRAS G12D) | G12V_exchange (KRAS_G12V exchange assay IC50) (KRAS G12V) | Papp A→B at 120 min, 50 μM [1]
1 | Cc1nc2c(F)c(-c3cccc(Cl)c3Cl)c(CCC#N)cc2c2c1cc([C@H]1[C@H]3C[C@H](CN(c4ncnn4C)C3)N1C(=O)C1CC1)n2[C@H]1[C@H]2CN[C@@H]1C2 (atropisomer, axis not shown; (Ra)) [Example 92, 3-((Ra)-1-((1R,4R,5S)-2-azabicyclo[2.1.1]hexan-5-yl)-2-((1S,5R,7R)-6-(cyclopropanecarbonyl)-3-(1-methyl-1H-1,2,4-triazol-5-yl)-3,6-diazabicyclo[3.2.1]octan-7-yl)-7-(2,3-dichlorophenyl)-6-fluoro-4-methyl-1H-pyrrolo[3,2-c]quinolin-8-yl)propanenitrile] | † | † | ≤ 0.5 ×10⁻⁶ cm/s
2 | Cc1nc2c(F)c(-c3cccc(Cl)c3Cl)c(CCC#N)cc2c2c1cc([C@H]1[C@H]3C[C@H](CN(c4nccc(C(F)(F)F)c4F)C3)N1C(=O)C1CC1)n2[C@H]1[C@H]2CN[C@@H]1C2 (atropisomer, axis not shown; (Ra)) [Example 50, 3-((Ra)-1-((1R,4R,5S)-2-azabicyclo[2.1.1]hexan-5-yl)-2-((1S,5R,7R)-6-(cyclopropanecarbonyl)-3-(3-fluoro-4-(trifluoromethyl)pyridin-2-yl)-3,6-diazabicyclo[3.2.1]octan-7-yl)-7-(2,3-dichlorophenyl)-6-fluoro-4-methyl-1H-pyrrolo[3,2-c]quinolin-8-yl)propanenitrile] | †† | † | ≤ 0.5 ×10⁻⁶ cm/s
3 | Cc1nc2c(F)c(-c3cccc(Cl)c3Cl)c(CCC#N)cc2c2c1cc([C@H]1[C@H]3C[C@H](CN(c4cnn(C(F)F)c4)C3)N1C(=O)C1CC1)n2[C@H]1[C@H]2CN[C@@H]1C2 (atropisomer, axis not shown; (Ra)) [Example 8, 3-((Ra)-1-((1R,4R,5S)-2-azabicyclo[2.1.1]hexan-5-yl)-2-((1S,5R,7R)-6-(cyclopropanecarbonyl)-3-(1-(difluoromethyl)-1H-pyrazol-4-yl)-3,6-diazabicyclo[3.2.1]octan-7-yl)-7-(2,3-dichlorophenyl)-6-fluoro-4-methyl-1H-pyrrolo[3,2-c]quinolin-8-yl)propanenitrile] | † | † | ≤ 0.5 ×10⁻⁶ cm/s
4 | Cc1nc2c(F)c(-c3cccc(Cl)c3Cl)c(CCC#N)cc2c2c1cc([C@H]1[C@H]3C[C@H](CN(c4ccccc4)C3)N1C(=O)C1CC1)n2[C@H]1[C@H]2CN[C@@H]1C2 (atropisomer, axis not shown; (Ra)) [Example 1, 3-((Ra)-1-((1R,4R,5S)-2-Azabicyclo[2.1.1]hexan-5-yl)-2-((1 S,5R,7R)-6-(cyclopropanecarbonyl)-3-phenyl-3,6-diazabicyclo[3.2.1]octan-7-yl)-7-(2,3-dichlorophenyl)-6-fluoro-4-methyl-1H-pyrrolo[3,2-c]quinolin-8-yl)propanenitrile] | †† | † | ≤ 0.5 ×10⁻⁶ cm/s
5 | Cc1sc(N2C[C@@H]3C[C@H](C2)N(C(=O)C2CC2)[C@H]3c2cc3c(C)nc4c(F)c(-c5cccc(Cl)c5Cl)c(CCC#N)cc4c3n2[C@H]2[C@H]3CN[C@@H]2C3)nc1C(C)(F)F (atropisomer, axis not shown; (Ra)) [Example 103, 3-((Ra)-1-((1R,4R,5S)-2-azabicyclo[2.1.1]hexan-5-yl)-2-((1S,5R,7R)-6-(cyclopropanecarbonyl)-3-(4-(1,1-difluoroethyl)-5-methylthiazol-2-yl)-3,6-diazabicyclo[3.2.1]octan-7-yl)-7-(2,3-dichlorophenyl)-6-fluoro-4-methyl-1H-pyrrolo[3,2-c]quinolin-8-yl)propanenitrile] | † | † | ≤ 0.5 ×10⁻⁶ cm/s
6 | Cc1nc2c(F)c(-c3cccc(Cl)c3Cl)c(CCC#N)cc2c2c1cc([C@H]1[C@H]3C[C@H](CN(c4ccn5cc(C(F)(F)F)nc5c4)C3)N1C(=O)C1CC1)n2[C@H]1[C@H]2CN[C@@H]1C2 (atropisomer, axis not shown; (Ra)) [Example 70, 3-((Ra)-1-((1R,4R,5S)-2-azabicyclo[2.1.1]hexan-5-yl)-2-((1S,5R,7R)-6-(cyclopropanecarbonyl)-3-(2-(trifluoromethyl)imidazo[1,2-a]pyridin-7-yl)-3,6-diazabicyclo[3.2.1]octan-7-yl)-7-(2,3-dichlorophenyl)-6-fluoro-4-methyl-1H-pyrrolo[3,2-c]quinolin-8-yl)propanenitrile] | † | † | ≤ 0.5 ×10⁻⁶ cm/s
7 | Cc1nc2c(F)c(-c3cccc(Cl)c3Cl)c(CCC#N)cc2c2c1cc([C@H]1[C@H]3C[C@H](CN(c4ccn(CC(C)C)c(=O)c4)C3)N1C(=O)C1CC1)n2[C@H]1[C@H]2CN[C@@H]1C2 (atropisomer, axis not shown; (Ra)) [Example 58, 3-((Ra)-1-((1R,4R,5S)-2-azabicyclo[2.1.1]hexan-5-yl)-2-((1S,5R,7R)-6-(cyclopropanecarbonyl)-3-(1-isobutyl-2-oxo-1,2-dihydropyridin-4-yl)-3,6-diazabicyclo[3.2.1]octan-7-yl)-7-(2,3-dichlorophenyl)-6-fluoro-4-methyl-1H-pyrrolo[3,2-c]quinolin-8-yl)propanenitrile] | † | † | ≤ 0.5 ×10⁻⁶ cm/s
8 | Cc1nc2c(F)c(-c3cccc(Cl)c3Cl)c(CCC#N)cc2c2c1cc([C@H]1[C@H]3C[C@H](CN(c4cccc(OC(F)(F)F)c4)C3)N1C(=O)C1CC1)n2[C@H]1[C@H]2CN[C@@H]1C2 (atropisomer, axis not shown; (Ra)) [Example 20, 3-((Ra)-1-((1R,4R,5S)-2-azabicyclo[2.1.1]hexan-5-yl)-2-((1S,5R,7R)-6-(cyclopropanecarbonyl)-3-(3-(trifluoromethoxy)phenyl)-3,6-diazabicyclo[3.2.1]octan-7-yl)-7-(2,3-dichlorophenyl)-6-fluoro-4-methyl-1H-pyrrolo[3,2-c]quinolin-8-yl)propanenitrile] | †† | † | ≤ 0.5 ×10⁻⁶ cm/s
9 | Cc1nc2c(F)c(-c3cccc(Cl)c3Cl)c(CCC#N)cc2c2c1cc([C@H]1[C@H]3C[C@H](CN(c4ncccc4C#N)C3)N1C(=O)C1CC1)n2[C@H]1[C@H]2CN[C@@H]1C2 (atropisomer, axis not shown; (Ra)) [Example 47, 2-((1S,5R,7R)-7-((Ra)-1-((1R,4R,5S)-2-azabicyclo[2.1.1]hexan-5-yl)-8-(2-cyanoethyl)-7-(2,3-dichlorophenyl)-6-fluoro-4-methyl-1H-pyrrolo[3,2-c]quinolin-2-yl)-6-(cyclopropanecarbonyl)-3,6-diazabicyclo[3.2.1]octan-3-yl)nicotinonitrile] | †† | † | ≤ 0.5 ×10⁻⁶ cm/s
10 | Cc1sc(N2C[C@@H]3C[C@H](C2)N(C(=O)C2CC2)[C@H]3c2cc3c(C)nc4c(F)c(-c5cccc(Cl)c5Cl)c(CCC#N)cc4c3n2[C@H]2[C@H]3CN[C@@H]2C3)nc1C#N (atropisomer, axis not shown; (Ra)) [Example 97, 2-((1S,5R,7R)-7-((Ra)-1-((1R,4R,5S)-2-azabicyclo[2.1.1]hexan-5-yl)-8-(2-cyanoethyl)-7-(2,3-dichlorophenyl)-6-fluoro-4-methyl-1H-pyrrolo[3,2-c]quinolin-2-yl)-6-(cyclopropanecarbonyl)-3,6-diazabicyclo[3.2.1]octan-3-yl)-5-methylthiazole-4-carbonitrile] | † | † | ≤ 0.5 ×10⁻⁶ cm/s
11 | CCn1ccc(N2C[C@@H]3C[C@H](C2)N(C(=O)C2CC2)[C@H]3c2cc3c(C)nc4c(F)c(-c5cccc(Cl)c5Cl)c(CCC#N)cc4c3n2[C@H]2[C@H]3CN[C@@H]2C3)cc1=O (atropisomer, axis not shown; (Ra)) [Example 67, 3-((Ra)-1-((1R,4R,5S)-2-azabicyclo[2.1.1]hexan-5-yl)-2-((1S,5R,7R)-6-(cyclopropanecarbonyl)-3-(1-ethyl-2-oxo-1,2-dihydropyridin-4-yl)-3,6-diazabicyclo[3.2.1]octan-7-yl)-7-(2,3-dichlorophenyl)-6-fluoro-4-methyl-1H-pyrrolo[3,2-c]quinolin-8-yl)propanenitrile] | † | † | ≤ 0.5 ×10⁻⁶ cm/s
12 | Cc1nc2c(F)c(-c3cccc(Cl)c3Cl)c(CCC#N)cc2c2c1cc([C@H]1[C@H]3C[C@H](CN(c4cc(=O)n(C)cn4)C3)N1C(=O)C1CC1)n2[C@H]1[C@H]2CN[C@@H]1C2 (atropisomer, axis not shown; (Ra)) [Example 69, 3-((Ra)-1-((1R,4R,5S)-2-azabicyclo[2.1.1]hexan-5-yl)-2-((1S,5R,7R)-6-(cyclopropanecarbonyl)-3-(1-methyl-6-oxo-1,6-dihydropyrimidin-4-yl)-3,6-diazabicyclo[3.2.1]octan-7-yl)-7-(2,3-dichlorophenyl)-6-fluoro-4-methyl-1H-pyrrolo[3,2-c]quinolin-8-yl)propanenitrile] | † | † | ≤ 0.5 ×10⁻⁶ cm/s
